Results published in US8513219B2, “Substituted phosphonates and their use in decreasing amyloid aggregates” (Queen Mary & Westfield College, University of London, priority 2007, dated 2013).
Read-outs that look alike come from different tables or passages of the source.

Experiments:
[1] = system: L929 immortalised fibroblast cell line; test: MTT colorimetric toxicity assay in L929 fibroblast cell line; format: cell-based; conditions: L929, 0.3 nM to 1 μM, up to 24 h exposure
Procedure: A first assessment of the potential toxicity of the substituted phosphonates was carried out in a non-neuronal cell line, using a tetrazolium salt (MTT) colorimetric assay, based on the method described by Mossman (1983), which gives a reflection of mitochondrial activity and cell integrity. The MTT [3-(4,5-dimethylthiazol-2-yl)-2,5-diphenyltetrazolium bromide] assay is based on the ability of a mitochondrial dehydrogenase enzyme from viable cells to cleave the tetrazolium rings of the pale yellow MTT and form dark blue formazan crystals which cannot cross cell membranes. The result is that healthy cells will accumulate more of the blue formazan crystals. […] They were then incubated for 2 h after addition of MTT (1 mg/ml) and the absorbance was read at 570 nm. […] The toxicity of the reference compound clioquinol (0.3 nM to 1 μM) was assessed under the same conditions, for comparison.
A first assessment of toxicity of the substituted phosphonates was carried out in a non-neuronal cell line, using a tetrazolium salt (MTT) colorimetric assay, based on the method described by Mossman (1983), which gives a reflection of mitochondrial activity and cell integrity (FIGS. 6 and 7). The toxicity of the reference compound clioquinol (0.3 nM to 1 μM) was assessed under the same conditions, for comparison.

[2] = system: amyloid accumulation in H4 cells; test: H4 cell amyloid accumulation (6E10 antibody, HRP/OPD absorbance); format: cell-based, human
[3] = system: intracellular amyloid in H4 cells; test: intracellular distribution of amyloid in H4 cells (6E10 immunofluorescence); format: cell-based, human; conditions: 1 μM, 5 days incubation, single dose
β-amyloid plaques = system: β-amyloid plaques; design: species or system APP and APP/Tau transgenic mice; conditions: mouse, in vivo
[4] = system: H4 cells (human neuroblastoma cell line)
[5] = H4 cells, 1 μM, average of 2-3 experiments

Compound | toxicity as reflected in cell viability (MTT) [1] | accumulation of amyloid in H4 cells ([2]; 1 μM, 5 days) | amyloid reduction (% controls), 5 day repeated doses [2, 5] [% controls] | amyloid reduction (% controls), 5 day single dose [2, 5] [% controls] | intracellular amyloid labelling in H4 cells [3] | amyloid plaque load in brain (β-amyloid plaques) | cell survival (% controls), 5 day repeated doses ([4]; 5 days, 1 μM) [% controls] | cell survival (% controls), 5 day single dose ([4]; 5 days, 1 μM) [% controls] | amyloid reduction (% controls), 5 day repeated doses [2] [% controls] | amyloid reduction (% controls), 5 day single dose [2] [% controls] | cell survival (% controls), 5 day repeated doses [4] [% controls] | cell survival (% controls), 5 day single dose [4] [% controls] | reduction of cell viability [4] [%]
Oc1c(I)cc(Cl)c2cccnc12 [Clioquinol, reference compound] | neither clioquinol nor any of the substituted phosphonates screened showed any toxicity | decreases the accumulation of amyloid | 76 | 64 | reduced this intracellular accumulation in some of the cells, but brightly labelled areas could still be found | apparent decreased plaque load, and especially a reduced load of large aggregates | 96 | 99 | – | – | – | – | –
CCOP(=O)(COc1ccccc1-c1nc2ccccc2s1)OCC [Compound 14, Diethyl 2-(2-benzthiazolyl)phenoxymethylphosphonate] | – | – | – | – | – | – | – | – | 83 | 100 | 110 | 100 | –
CCOP(=O)(COc1ccc2c(c1)[nH]c1ccccc12)OCC [Compound 17, Diethyl-2-carbazolyloxymethylphosphonate] | – | – | – | – | – | – | – | – | 62 | 37 | 102 | 97 | –
O=P([O-])([O-])Cn1c2ccccc2c2ccccc21.[Na+].[Na+] [Compound 20, Disodium N-carbazolylmethylphosphonate] | – | – | – | – | – | – | – | – | 66 | 11 | 72 | 88 | 28
CCOP(=O)(COc1ccc(NC(C)=O)cc1)OCC [Compound 25, Diethyl 4-acetamidophenoxy methylphosphonate] | – | – | – | – | – | – | – | – | 62 | 24 | 97 | 98 | –
